Test results published in US20250084056A1, “SUBSTITUTED OXOISOINDOLINYL PIPERIDINE-2,6-DIONE COMPOUNDS” (BRISTOL-MYERS SQUIBB COMPANY, priority 2023, published 2025).

Tests used:
Format in all cases: cell-based
Phospho-Rb (Ser807/811) = assay: Phospho-Retinoblastoma (pRB) Cellular Assay; details: Homo sapiens, OVCAR-3, NIH OVCAR3 cells, 24 hours; for IC50: concentration giving 50% response; for Emax: maximum response, reference compound at 10 μM = 100%, read-out: pRB Ymax
How it was run: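 OVCAR3 cells seeded overnight, then dosed with serial dilutions for 24 h at 37° C. Lysed with kit mix plus phosphatase inhibitor, ≥4 h at room temperature, read on EnVision; 100% response set by reference compound at 10 μM, giving IC50 and Ymax.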

GSPT1 = GSPT1 (Homo sapiens, UniProt P15170+Q96SW2); assay: GSPT1 Cellular Degradation Assay (DF15-GSPT1-ePL); parameters: expressed in transfected cells; details: DF15-GSPT1-ePL cells, 20 hours
How it was run: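 Human DF15 cells co-expressing a GSPT1–ePL fusion were treated with compound in RPMI 1640/10% FBS for 20 h at 37 °C. GSPT1 level was read by enzyme-fragment-complementation luminescence after 60 min with detection reagent. The reference degrader at […] defined 75% response; DC50 and Dmax were reported.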

Cyclin E1 = Cyclin E1 (Homo sapiens, UniProt P24864+Q96SW2); assay: Cyclin E1 Cellular Degradation Assay (MSD); parameters: endogenous in cells; host or cells: OVCAR3; details: for DC50 / Dmax: Cyclin E1 cellular degradation; for Dmax: maximum degradation; for Ratio of GSPT1 DC50/Cyclin E1 DC50: selectivity for degradation of Cyclin E1 over GSPT1
How it was run: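 OVCAR3 cells treated with compound for 24 h at 37 °C, lysed, and cyclin E1 measured by MSD sandwich immunoassay (rabbit capture, mouse detection anti-CCNE1). Reference degrader at […] defined 110% response; DC50 and Dmax derived from response.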

Chain of Cyclin E1 (P24864 whole entry): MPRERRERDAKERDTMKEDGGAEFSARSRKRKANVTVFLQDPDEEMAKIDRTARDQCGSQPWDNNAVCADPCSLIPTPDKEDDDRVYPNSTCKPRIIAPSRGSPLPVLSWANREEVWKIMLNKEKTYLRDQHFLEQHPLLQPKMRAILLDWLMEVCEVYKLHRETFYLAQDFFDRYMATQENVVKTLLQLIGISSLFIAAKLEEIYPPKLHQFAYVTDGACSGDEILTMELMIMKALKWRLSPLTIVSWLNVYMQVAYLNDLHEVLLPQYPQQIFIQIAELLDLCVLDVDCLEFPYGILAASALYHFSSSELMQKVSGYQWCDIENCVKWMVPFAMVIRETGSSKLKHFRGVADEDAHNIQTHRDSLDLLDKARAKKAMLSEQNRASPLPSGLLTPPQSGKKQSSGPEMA
Chain of Cyclin E1 (Q96SW2 whole entry): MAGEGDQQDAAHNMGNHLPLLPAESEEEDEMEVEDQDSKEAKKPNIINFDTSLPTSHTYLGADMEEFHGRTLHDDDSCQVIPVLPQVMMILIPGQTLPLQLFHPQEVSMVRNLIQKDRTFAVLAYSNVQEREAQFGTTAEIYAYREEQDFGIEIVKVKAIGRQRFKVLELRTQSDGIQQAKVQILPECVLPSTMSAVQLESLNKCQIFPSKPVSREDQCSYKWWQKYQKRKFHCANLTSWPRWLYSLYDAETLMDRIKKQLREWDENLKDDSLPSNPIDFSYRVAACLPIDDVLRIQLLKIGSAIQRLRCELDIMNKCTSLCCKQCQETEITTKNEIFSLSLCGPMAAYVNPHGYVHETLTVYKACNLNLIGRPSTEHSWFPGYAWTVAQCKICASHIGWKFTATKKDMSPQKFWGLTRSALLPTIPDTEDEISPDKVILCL
Chain of Cyclin E1 (Q16531 whole entry partner): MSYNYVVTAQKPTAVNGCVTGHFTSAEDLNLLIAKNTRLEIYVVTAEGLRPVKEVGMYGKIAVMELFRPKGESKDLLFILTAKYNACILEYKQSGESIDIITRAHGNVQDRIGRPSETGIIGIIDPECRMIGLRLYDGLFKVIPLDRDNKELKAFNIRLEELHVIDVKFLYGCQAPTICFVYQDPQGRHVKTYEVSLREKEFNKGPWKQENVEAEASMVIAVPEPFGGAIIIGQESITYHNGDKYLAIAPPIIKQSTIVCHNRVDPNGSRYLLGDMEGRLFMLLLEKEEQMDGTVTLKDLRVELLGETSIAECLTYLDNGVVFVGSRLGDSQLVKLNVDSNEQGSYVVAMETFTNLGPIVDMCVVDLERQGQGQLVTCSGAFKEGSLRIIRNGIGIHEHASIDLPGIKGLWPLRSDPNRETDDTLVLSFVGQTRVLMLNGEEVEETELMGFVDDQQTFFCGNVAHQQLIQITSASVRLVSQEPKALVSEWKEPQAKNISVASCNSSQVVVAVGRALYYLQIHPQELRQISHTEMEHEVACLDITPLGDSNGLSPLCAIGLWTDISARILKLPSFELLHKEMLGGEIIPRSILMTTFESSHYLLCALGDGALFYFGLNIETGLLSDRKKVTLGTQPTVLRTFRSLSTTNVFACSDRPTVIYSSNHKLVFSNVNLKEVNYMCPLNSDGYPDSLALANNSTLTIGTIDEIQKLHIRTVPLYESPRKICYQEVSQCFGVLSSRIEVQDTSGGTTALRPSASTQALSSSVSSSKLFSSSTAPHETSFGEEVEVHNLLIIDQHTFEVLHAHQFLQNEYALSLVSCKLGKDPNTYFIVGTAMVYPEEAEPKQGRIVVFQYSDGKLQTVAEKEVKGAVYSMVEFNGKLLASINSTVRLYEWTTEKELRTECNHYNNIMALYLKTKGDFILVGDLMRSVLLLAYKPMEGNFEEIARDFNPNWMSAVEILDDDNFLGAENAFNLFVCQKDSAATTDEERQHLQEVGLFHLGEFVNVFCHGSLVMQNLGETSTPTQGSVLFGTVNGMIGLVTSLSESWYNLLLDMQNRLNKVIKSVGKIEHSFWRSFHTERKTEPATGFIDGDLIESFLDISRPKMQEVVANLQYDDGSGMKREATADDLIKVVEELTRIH
Chain of GSPT1 (P15170 whole entry, the tested form may be a part): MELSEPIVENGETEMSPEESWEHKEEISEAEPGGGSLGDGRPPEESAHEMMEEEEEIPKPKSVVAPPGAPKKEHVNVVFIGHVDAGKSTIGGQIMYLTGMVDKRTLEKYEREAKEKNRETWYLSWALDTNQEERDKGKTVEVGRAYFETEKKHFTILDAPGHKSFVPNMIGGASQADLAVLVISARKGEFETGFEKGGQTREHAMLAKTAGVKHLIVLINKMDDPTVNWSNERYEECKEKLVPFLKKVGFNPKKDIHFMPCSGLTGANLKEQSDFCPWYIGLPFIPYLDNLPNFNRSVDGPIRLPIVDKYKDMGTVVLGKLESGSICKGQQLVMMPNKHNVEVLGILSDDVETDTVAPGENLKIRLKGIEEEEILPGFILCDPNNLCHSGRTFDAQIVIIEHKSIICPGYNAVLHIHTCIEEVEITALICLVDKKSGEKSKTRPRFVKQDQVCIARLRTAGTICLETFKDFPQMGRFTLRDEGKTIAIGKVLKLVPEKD
Chain of GSPT1 (Q96SW2 whole entry, the tested form may be a part): as the sequence (Q96SW2 whole entry) above
Chain of GSPT1 (Q16531 whole entry partner, the tested form may be a part): as the sequence (Q16531 whole entry partner) above

Row | IC50 (Phospho-Rb (Ser807/811)) | DC50 (GSPT1) | Dmax (GSPT1) | DC50 (Cyclin E1) | Dmax (Cyclin E1) | Ratio of GSPT1 DC50/Cyclin E1 DC50 (Cyclin E1) | Compound | Emax (Phospho-Rb (Ser807/811))
1 | 2310 nM | 6600 nM | 64% | 735 nM | 83% | 9 | COc1ccccc1Oc1ccc(NC(=O)OCc2ccc3c(c2OC)C(=O)N(C2CCC(=O)NC2=O)C3)cc1 (centres unmarked) [Example 31, [2-(2,6-dioxopiperidin-3-yl)-4-methoxy-3-oxo-2,3-dihydro-1H-isoindol-5-yl]methyl N-[4-(2-methoxyphenoxy)phenyl]carbamate] | 81%
2 | 140 nM | > 14000 nM | 33% | 327 nM | 112% | >43 | COc1cc(Oc2ccc(F)c(Cl)c2)ccc1NC(=O)OCc1ccc2c(c1OC)C(=O)N(C1CCC(=O)NC1=O)C2 (centres unmarked) [Example 100, [2-(2,6-dioxopiperidin-3-yl)-4-methoxy-3-oxo-2,3-dihydro-1H-isoindol-5-yl]methyl N-[4-(3-chloro-4-fluorophenoxy)-2-methoxyphenyl]carbamate] | 118%
3 | 50 nM | > 14000 nM | 7% | 37 nM | 108% | >380 | COc1cc(Oc2ccc(F)cc2Cl)ccc1NC(=O)OCc1ccc2c(c1OC)C(=O)N(C1CCC(=O)NC1=O)C2 (centres unmarked) [Example 104, [2-(2,6-dioxopiperidin-3-yl)-4-methoxy-3-oxo-2,3-dihydro-1H-isoindol-5-yl]methyl N-[4-(2-chloro-4-fluorophenoxy)-2-methoxyphenyl]carbamate] | 118%
4 | 289 nM | > 14000 nM | 28% | 107 nM | 102% | >131 | COc1cc(Oc2ccc(F)cc2)ccc1NC(=O)OCc1ccc2c(c1OC)C(=O)N(C1CCC(=O)NC1=O)C2 (centres unmarked) [Example 37, [2-(2,6-dioxopiperidin-3-yl)-4-methoxy-3-oxo-2,3-dihydro-1H-isoindol-5-yl]methyl N-[4-(4-fluorophenoxy)-2-methoxyphenyl]carbamate] | 111%
5 | 1180 nM | > 14000 nM | 30% | 93 nM | 104% | >151 | COc1c(COC(=O)Nc2ccc(Oc3cccc(F)c3)cc2Cl)ccc2c1C(=O)N(C1CCC(=O)NC1=O)C2 (centres unmarked) [Example 27, [2-(2,6-dioxopiperidin-3-yl)-4-methoxy-3-oxo-2,3-dihydro-1H-isoindol-5-yl]methyl N-[2-chloro-4-(3-fluorophenoxy)phenyl]carbamate] | 86%
6 | 364 nM | > 14000 nM | 5% | 394 nM | 103% | >36 | COc1cc(Oc2cc(F)c(F)c(F)c2)ccc1NC(=O)OCc1ccc2c(c1OC)C(=O)N(C1CCC(=O)NC1=O)C2 (centres unmarked) [Example 72, [2-(2,6-dioxopiperidin-3-yl)-4-methoxy-3-oxo-2,3-dihydro-1H-isoindol-5-yl]methyl N-[2-methoxy-4-(3,4,5-trifluorophenoxy)phenyl]carbamate] | 120%

The remaining lines, values behind:

Row | Compound | IC50 (Phospho-Rb (Ser807/811)) | DC50 (GSPT1) | Dmax (GSPT1) | DC50 (Cyclin E1) | Dmax (Cyclin E1) | Ratio of GSPT1 DC50/Cyclin E1 DC50 (Cyclin E1) | Emax (Phospho-Rb (Ser807/811))
7 | COc1c(COC(=O)Nc2ccc(Oc3cc(F)c(F)cc3C)cc2C)ccc2c1C(=O)N(C1CCC(=O)NC1=O)C2 (centres unmarked) [Example 74, [2-(2,6-dioxopiperidin-3-yl)-4-methoxy-3-oxo-2,3-dihydro-1H-isoindol-5-yl]methyl N-[4-(4,5-difluoro-2-methylphenoxy)-2-methylphenyl]carbamate] | 53 nM | > 14000 nM | 37% | 222 nM | 111% | >63 | 116%
8 | COc1c(COC(=O)Nc2ccc(Cc3cc(F)c(F)c(F)c3)cc2)ccc2c1C(=O)N(C1CCC(=O)NC1=O)C2 (centres unmarked) [Example 19, [2-(2,6-dioxopiperidin-3-yl)-4-methoxy-3-oxo-2,3-dihydro-1H-isoindol-5-yl]methyl N-{4-[(3,4,5-trifluorophenyl)methyl]phenyl}carbamate] | 701 nM | > 14000 nM | 9% | 146 nM | 105% | >96 | 92%
9 | COc1c(COC(=O)Nc2ccc(Oc3ccccc3Cl)cc2F)ccc2c1C(=O)N(C1CCC(=O)NC1=O)C2 (centres unmarked) [Example 107, [2-(2,6-dioxopiperidin-3-yl)-4-methoxy-3-oxo-2,3-dihydro-1H-isoindol-5-yl]methyl N-[4-(2-chlorophenoxy)-2-fluorophenyl]carbamate] | 106 nM | 10000 nM | 63% | 69 nM | 108% | 146 | 124%
10 | COc1c(COC(=O)Nc2ccc(C3(c4ccccc4)CC3)cc2)ccc2c1C(=O)N(C1CCC(=O)NC1=O)C2 (centres unmarked) [Example 7, [2-(2,6-dioxopiperidin-3-yl)-4-methoxy-3-oxo-2,3-dihydro-1H-isoindol-5-yl]methyl N-[4-(1-phenylcyclopropyl)phenyl]carbamate] | 1780 nM | > 14000 nM | 21% | 203 nM | 90% | >69 | 10%
11 | CC(C)COc1c(COC(=O)Nc2ccc(Oc3ccc(F)c(F)c3)cc2)ccc2c1C(=O)N(C1CCC(=O)NC1=O)C2 (centres unmarked) [Example 138, [2-(2,6-dioxopiperidin-3-yl)-4-(2-methylpropoxy)-3-oxo-2,3-dihydro-1H-isoindol-5-yl]methyl N-[4-(3,4-difluorophenoxy)phenyl]carbamate] | 45 nM | > 14000 nM | 9% | 173 nM | 108% | >81 | 120%
12 | COc1c(COC(=O)Nc2ccc(Oc3cc(F)ccc3Cl)cc2)ccc2c1C(=O)N(C1CCC(=O)NC1=O)C2 (centres unmarked) [Example 106, [2-(2,6-dioxopiperidin-3-yl)-4-methoxy-3-oxo-2,3-dihydro-1H-isoindol-5-yl]methyl N-[4-(2-chloro-5-fluorophenoxy)phenyl]carbamate] | 178 nM | > 14000 nM | 47% | 57 nM | 106% | >245 | 113%
13 | COc1c(COC(=O)Nc2ccc(C(F)(F)c3ccccc3)cc2)ccc2c1C(=O)N(C1CCC(=O)NC1=O)C2 (centres unmarked) [Example 29, [2-(2,6-dioxopiperidin-3-yl)-4-methoxy-3-oxo-2,3-dihydro-1H-isoindol-5-yl]methyl N-{4-[difluoro(phenyl)methyl]phenyl}carbamate] | 865 nM | > 14000 nM | 45% | 1430 nM | 92% | >10 | 99%
14 | [2H]C1([2H])C(=O)NC(=O)[C@@]([2H])(N2Cc3ccc(COC(=O)Nc4ccc(Oc5ccc(F)c(F)c5)cc4)c(OC)c3C2=O)C1([2H])[2H] [Example 180, {2-[(3S)-2,6-dioxo(3,4,4,5,5-^2H5s)piperidin-3-yl]-4-methoxy-3-oxo-2,3-dihydro-1H-isoindol-5-yl}methyl N-[4-(3,4-difluorophenoxy)phenyl]carbamate] | 54 nM | > 14000 nM | 48% | 60 nM | 111% | >233 | 108%
15 | O=C1CCC(N2Cc3ccc(COC(=O)Nc4ccc(Oc5ccccc5)cc4)c(Oc4cccnc4)c3C2=O)C(=O)N1 (centres unmarked) [Example 171, [2-(2,6-dioxopiperidin-3-yl)-3-oxo-4-(pyridin-3-yloxy)-2,3-dihydro-1H-isoindol-5-yl]methyl N-(4-phenoxyphenyl)carbamate] | 160 nM | > 14000 nM | 0% | 170 nM | 107% | >82 | 130%
16 | O=C1CCC(N2Cc3ccc(COC(=O)Nc4ccc(Oc5ccc(F)cc5F)cc4F)c(O[C@@H]4CCCOC4)c3C2=O)C(=O)N1 (stereo partly drawn) [Example 148, [2-(2,6-dioxopiperidin-3-yl)-4-[(3R)-oxan-3-yloxy]-3-oxo-2,3-dihydro-1H-isoindol-5-yl]methyl N-[4-(2,4-difluorophenoxy)-2-fluorophenyl]carbamate] | 75 nM | > 14000 nM | 10% | 33 nM | 110% | >423 | 136%
17 | COc1c(COC(=O)Nc2ccc(Oc3ccc(F)c(F)c3)cc2C)ccc2c1C(=O)N(C1CCC(=O)NC1=O)C2 (centres unmarked) [Example 38, [2-(2,6-dioxopiperidin-3-yl)-4-methoxy-3-oxo-2,3-dihydro-1H-isoindol-5-yl]methyl N-[4-(3,4-difluorophenoxy)-2-methylphenyl]carbamate] | 128 nM | 4000 nM | 46% | 91 nM | 107% | 44 | 111%
